PubChem BioAssay (NCI)
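GI50: concentration for 50% inhibition of growth. The concentration for full growth arrest is given as TGI.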

How the values were obtained:
Assay in all cases: growth of human tumour cells (NCI), 384-well format
[1] = test system: 786-0 renal
[2] = test system: A498 renal
[3] = test system: A549 NSCLC
[4] = test system: ACHN renal
[5] = test system: BT-549 breast
[6] = test system: CAKI-1 renal
[7] = test system: CCRF-CEM leukemia
[8] = test system: COLO 205 colon
[9] = test system: DU-145 prostate
[10] = test system: EKVX NSCLC
[11] = test system: HCC-2998 colon
[12] = test system: HCT-15 colon
[13] = test system: HL-60(TB) leukemia
[14] = test system: HOP-62 NSCLC
[15] = test system: HOP-92 NSCLC
[16] = test system: HS 578T breast
[17] = test system: HT29 colon
[18] = test system: IGROV1 ovarian
[19] = test system: K-562 leukemia
[20] = test system: KM12 colon
[21] = test system: LOX IMVI melanoma
[22] = test system: M14 melanoma
[23] = test system: MALME-3M melanoma
[24] = test system: MCF7 breast
[25] = test system: MDA-MB-231 breast
[26] = test system: MDA-MB-435 melanoma
[27] = test system: MDA-MB-468 breast
[28] = test system: MOLT-4 leukemia
[29] = test system: NCI-H226 lung
[30] = test system: NCI-H23 lung
[31] = test system: NCI-H322M lung
[32] = test system: NCI-H460 NSCLC
[33] = test system: NCI-H522 lung
[34] = test system: NCI/ADR-RES ovarian
[35] = test system: OVCAR-3 ovarian
[36] = test system: OVCAR-4 ovarian
[37] = test system: OVCAR-5 ovarian
[38] = test system: OVCAR-8 ovarian
[39] = test system: PC-3 prostate
[40] = test system: RPMI-8226 leukemia
[41] = test system: RXF 393 renal
[42] = test system: SF-268 CNS
[43] = test system: SF-295 CNS
[44] = test system: SF-539 CNS
[45] = test system: SK-MEL-28 melanoma
[46] = test system: SK-MEL-5 melanoma
[47] = test system: SK-OV-3 ovarian
[48] = test system: SN12C renal
[49] = test system: SNB-19 CNS
[50] = test system: SNB-75 CNS
[51] = test system: SR leukemia
[52] = test system: SW-620 colon
[53] = test system: T-47D breast
[54] = test system: TK-10 renal
[55] = test system: UACC-257 melanoma
[56] = test system: UACC-62 melanoma
[57] = test system: UO-31 renal

SMILES: C[C@H]1COCCN1c1nc(-c2cnc(N)cc2C(F)F)nc(N2CCOCC2)n1
- GI50 [1]: 385 nM
- TGI [1]: 6130 nM
- GI50 [2]: 49.3 nM
- TGI [2]: 447 nM
- GI50 [3]: 221 nM
- TGI [3]: 2750 nM
- GI50 [4]: 247 nM
- TGI [4]: 3830 nM
- GI50 [5]: 175 nM
- TGI [5]: 758 nM
- GI50 [6]: 196 nM
- TGI [6]: 3960 nM
- GI50 [7]: 224 nM
- TGI [7]: 1680 nM
- GI50 [8]: 201 nM
- TGI [8]: 11800 nM
- GI50 [9]: 308 nM
- TGI [9]: > 100000 nM
- GI50 [10]: 189 nM
- TGI [10]: 780 nM
- GI50 [11]: 423 nM
- TGI [11]: 12400 nM
- GI50 [12]: 181 nM
- TGI [12]: 30900 nM
- GI50 [13]: 289 nM
- TGI [13]: 2820 nM
- GI50 [14]: 261 nM
- TGI [14]: 4410 nM
- GI50 [15]: 102 nM
- TGI [15]: 462 nM
- GI50 [16]: 52.8 nM
- TGI [16]: 273 nM
- GI50 [17]: 263 nM
- TGI [17]: 55300 nM
- GI50 [18]: 53.8 nM
- TGI [18]: 265 nM
- GI50 [19]: 548 nM
- TGI [19]: > 100000 nM
- GI50 [20]: 294 nM
- TGI [20]: 12000 nM
- GI50 [21]: 242 nM
- TGI [21]: 1170 nM
- GI50 [22]: 191 nM
- TGI [22]: 27400 nM
- GI50 [23]: 50.7 nM
- TGI [23]: 309 nM
- GI50 [24]: 45.3 nM
- TGI [24]: 3080 nM
- GI50 [25]: 248 nM
- TGI [25]: > 100000 nM
- GI50 [26]: 275 nM
- TGI [26]: 2520 nM
- GI50 [27]: 172 nM
- TGI [27]: 487 nM
- GI50 [28]: 103 nM
- TGI [28]: 406 nM
- GI50 [29]: 159 nM
- TGI [29]: 649 nM
- GI50 [30]: 184 nM
- TGI [30]: 30700 nM
- GI50 [31]: 203 nM
- TGI [31]: 10900 nM
- GI50 [32]: 68.7 nM
- TGI [32]: > 100000 nM
- GI50 [33]: 206 nM
- TGI [33]: 1630 nM
- GI50 [34]: 399 nM
- TGI [34]: > 100000 nM
- GI50 [35]: 270 nM
- TGI [35]: 2930 nM
- GI50 [36]: 115 nM
- TGI [36]: 585 nM
- GI50 [37]: 163 nM
- TGI [37]: 1170 nM
- GI50 [38]: 307 nM
- TGI [38]: > 100000 nM
- GI50 [39]: 166 nM
- TGI [39]: 10100 nM
- GI50 [40]: 30.7 nM
- TGI [40]: 155 nM
- GI50 [41]: 315 nM
- TGI [41]: 2880 nM
- GI50 [42]: 311 nM
- TGI [42]: 36100 nM
- GI50 [43]: 106 nM
- TGI [43]: 463 nM
- GI50 [44]: 323 nM
- TGI [44]: 5880 nM
- GI50 [45]: 146 nM
- TGI [45]: 890 nM
- GI50 [46]: 143 nM
- TGI [46]: 417 nM
- GI50 [47]: 129 nM
- TGI [47]: 441 nM
- GI50 [48]: 138 nM
- TGI [48]: 772 nM
- GI50 [49]: 2330 nM
- TGI [49]: > 100000 nM
- GI50 [50]: 117 nM
- TGI [50]: 810 nM
- GI50 [51]: 125 nM
- TGI [51]: 370 nM
- GI50 [52]: 554 nM
- TGI [52]: > 100000 nM
- GI50 [53]: 19.7 nM
- TGI [53]: 106 nM
- GI50 [54]: 254 nM
- TGI [54]: 2010 nM
- GI50 [55]: 389 nM
- TGI [55]: 3210 nM
- GI50 [56]: 227 nM
- TGI [56]: 1490 nM
- GI50 [57]: 321 nM
- TGI [57]: > 100000 nM
